From US7435751B2, “7-Fluoro-1,3-dihydro-indol-2-one oxazolidinones as antibacterial agents” (priority 2005, dated 2008) come the findings set out here.

One test has as its system S. aureus UC-76 SA-1. Put plainly: In vitro antibacterial activity against S. aureus UC-76 SA-1. In kind it is cell-based. The conditions noted are these: Staphylococcus aureus, UC76; strain UC-76 SA-1. The source says: (§1) The in vitro antibacterial activity of the compounds of the present invention may be assessed by following procedures recommended in (1) National Committee for Clinical Laboratory Standards (January 2003), Methods for dilution antimicrobial tests for bacteria that grow aerobically, Approved Standard (6th ed), M7-A6, NCCLS, Wayne, Pa.; (2) National Committee for Clinical Laboratory Standards (March 2001), Methods for antimicrobial susceptibility testing of anaerobic bacteria, Approved Standard (5th ed), M11-A4, NCCLS, Wayne, Pa.; (3) National Committee for Clinical Laboratory Standards (Jan. 2003), MIC testing supplemental tables, M100-S13 (for use with M7-A6), NCCLS, Wayne, Pa.; and (4) Murray P R, Baron E J, Jorgensen J H, et al. Manual of Clinical Microbiology (8th ed) Washington, D.C.: American Society for Microbiology Press, 2003. The antibacterial activity can be presented in the form of MIC value. The MIC value is the lowest concentration of drug which prevented macroscopically visible growth under the conditions of the test.

The next test relates to S. pneumoniae SV1 SP-3. Put plainly: In vitro antibacterial activity against S. pneumoniae SV1 SP-3. Format: cell-based. The note with it: Streptococcus pneumoniae, SV1SP3; strain SV1 SP-3.
Excerpt: as §1

The subject of the next test is E. faecalis MGH-2 EF 1-1. Put plainly: In vitro antibacterial activity against E. faecalis MGH-2 EF 1-1. Format: cell-based. The note with it: Enterococcus faecalis, MGH2EF11; strain MGH-2 EF 1-1.
Excerpt: as §1

The next test relates to S. aureus (LORSA). Briefly: In vitro antibacterial activity, MIC90 against S. aureus (LORSA). Format: cell-based. The note with it: Staphylococcus aureus.
Excerpt: as §1

In another test the test system is S. pneumoniae (LRSA). Put plainly: In vitro antibacterial activity, MIC90 against S. pneumoniae (LRSA). Format: cell-based. The conditions noted are these: Streptococcus pneumoniae.
Excerpt: as §1

The next test deals with E. faecalis (VREF). Briefly: In vitro antibacterial activity, MIC90 against E. faecalis (VREF). In kind it is cell-based. The conditions noted are these: Enterococcus faecalis.
Excerpt: as §1

For the next test, the system named is E. faecium (VREF). Put plainly: In vitro antibacterial activity, MIC90 against E. faecium (VREF). In kind it is cell-based. The conditions noted are these: Enterococcus faecium.
Excerpt: as §1

For the next test, the target named is T1, MAO-A (Homo sapiens, UniProt P21397).
T1 sequence (P21397 1-527): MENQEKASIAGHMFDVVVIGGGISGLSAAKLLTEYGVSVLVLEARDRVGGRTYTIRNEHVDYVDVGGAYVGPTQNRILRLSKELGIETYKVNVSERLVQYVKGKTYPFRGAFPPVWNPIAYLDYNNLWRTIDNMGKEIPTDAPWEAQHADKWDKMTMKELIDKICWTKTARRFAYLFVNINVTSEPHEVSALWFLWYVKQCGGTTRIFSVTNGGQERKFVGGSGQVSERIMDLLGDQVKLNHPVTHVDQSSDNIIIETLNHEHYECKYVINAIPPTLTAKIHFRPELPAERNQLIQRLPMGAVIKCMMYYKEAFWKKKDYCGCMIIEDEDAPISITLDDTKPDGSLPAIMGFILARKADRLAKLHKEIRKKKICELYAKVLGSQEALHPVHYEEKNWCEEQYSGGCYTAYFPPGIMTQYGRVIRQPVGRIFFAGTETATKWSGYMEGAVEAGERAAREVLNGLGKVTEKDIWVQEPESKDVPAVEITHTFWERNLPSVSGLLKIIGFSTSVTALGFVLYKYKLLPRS
Briefly: Monoamine oxidase A inhibition (conversion of MAO substrate to dihydropyridinium metabolite). Format: biochemical. The conditions noted are these: substrate at Km 64 μM; MAO-A 0.01 mg/mL. On the procedure:
(§2) Following procedure may assess monoamine oxidase inhibition activity of the compounds of the present invention:
(§3) MAO-A and B inhibition were analyzed by measuring the inhibition of conversion of an MAO substrate, 1-methyl-4-(1-methyl-2-pyrryl)-1,2,3,6-tetrahydropyridine, to its dihydropyridinium metabolite (λ=421 nm). The substrate concentration was equal to the Km (64 μM for MAO-A and 43 μM for MAO-B). The MAO-A concentration was 0.01 mg/mL, and the MAO-B concentration was 0.008 mg/mL. Each inhibitor was tested at seven concentrations. Percent inhibition at each concentration was established relative to the uninhibited control rate, and the IC50 and Ki values were calculated.

Another test addresses T2, MAO-B (Homo sapiens, UniProt P27338).
T2 sequence (P27338 1-520): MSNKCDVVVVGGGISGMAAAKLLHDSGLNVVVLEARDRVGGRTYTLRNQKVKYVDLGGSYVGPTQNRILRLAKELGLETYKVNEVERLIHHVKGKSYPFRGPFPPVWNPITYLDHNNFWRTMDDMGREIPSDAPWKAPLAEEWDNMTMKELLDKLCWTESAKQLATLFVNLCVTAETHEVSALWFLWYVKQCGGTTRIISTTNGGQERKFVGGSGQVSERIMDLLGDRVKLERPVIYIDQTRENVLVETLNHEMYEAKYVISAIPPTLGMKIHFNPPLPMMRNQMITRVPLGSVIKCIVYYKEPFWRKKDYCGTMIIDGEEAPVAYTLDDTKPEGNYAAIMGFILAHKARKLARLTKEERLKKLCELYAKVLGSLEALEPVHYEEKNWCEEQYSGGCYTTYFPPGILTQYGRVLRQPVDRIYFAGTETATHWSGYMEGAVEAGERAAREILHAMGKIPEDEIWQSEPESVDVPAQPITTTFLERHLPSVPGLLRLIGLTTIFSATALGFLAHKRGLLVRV
Put plainly: Monoamine oxidase B inhibition (conversion of MAO substrate to dihydropyridinium metabolite). In kind it is biochemical. The note with it: substrate at Km 43 μM; MAO-B 0.008 mg/mL. As to the method: as §2, §3

≈ marks a conversion by molar mass, not a printed value.

Take `COC(=O)NC[C@H]1CN(c2cc(F)c3c(c2)CC(=O)N3C2CC2)C(=O)O1` [Example 6, (S)-[3-(1-cyclopropyl-7-fluoro-2-oxo-2,3-dihydro-1H-indol-5-yl)-2-oxo-oxazolidin-5-ylmethyl]-carbamic acid methyl ester]: the MIC90 in the test with S. aureus UC-76 SA-1, with S. pneumoniae SV1 SP-3 and against E. faecalis MGH-2 EF 1-1 was 8 µg/mL (≈ 22 µM) throughout.

In the case of `COC(=O)NC[C@H]1CN(c2cc(F)c3c(c2)CC(=O)N3CC2CC2)C(=O)O1` [Example 7, (S)-[3-(1-cyclopropylmethyl-7-fluoro-2-oxo-2,3-dihydro-1H-indol-5-yl)-2-oxo-oxazolidin-5-ylmethyl]-carbamic acid methyl ester], the MIC90 in the test on S. aureus UC-76 SA-1, against S. pneumoniae SV1 SP-3 and in the test with E. faecalis MGH-2 EF 1-1 was 4 µg/mL (≈ 10.6 µM) each time.

In the case of `COC(=O)NC[C@H]1CN(c2cc(F)c3c(c2)CC(=O)N3C)C(=O)O1` [Example 1, (5S)-[3-(7-fluoro-1-methyl-2-oxo-2,3-dihydro-1H-indol-5-yl)-2-oxo-oxazolidin-5-ylmethyl]-carbamic acid methyl ester], the MIC90 with S. aureus (LORSA), in the test with S. pneumoniae (LRSA), with E. faecalis (VREF) and against E. faecium (VREF) was 4 µg/mL (≈ 11.9 µM) in each case. Besides, the Ki – broadly, the dissociation constant of the complex between target and ligand, obtained from inhibition or displacement – on MAO-A stood at 722 µM; on MAO-B, 52.6 µM.

For `CCCN1C(=O)Cc2cc(N3C[C@H](CNC(=O)OC)OC3=O)cc(F)c21` [Example 5, (S)-[3-(7-fluoro-2-oxo-1-propyl-2,3-dihydro-1H-indol-5-yl)-2-oxo-oxazolidin-5-ylmethyl]-carbamic acid methyl ester], the MIC90 (commonly an inhibitory concentration at the 90% level, which refers to growth in some studies and to a panel of isolates in others) with S. aureus UC-76 SA-1 stood at 8 µg/mL (≈ 21.9 µM); in the test on S. pneumoniae SV1 SP-3 it was 4 µg/mL (≈ 10.9 µM); against E. faecalis MGH-2 EF 1-1, 8 µg/mL (≈ 21.9 µM).

In the case of `CCN1C(=O)Cc2cc(N3C[C@H](CNC(=O)OC)OC3=O)cc(F)c21` [Example 3, (S)-[3-(1-ethyl-7-fluoro-2-oxo-2,3-dihydro-1H-indol-5-yl)-2-oxo-oxazolidin-5-ylmethyl]-carbamic acid methyl ester], the MIC90 in the test with S. aureus UC-76 SA-1 stood at 4 µg/mL (≈ 11.4 µM); in the test on S. pneumoniae SV1 SP-3, 4 µg/mL (≈ 11.4 µM); against E. faecalis MGH-2 EF 1-1 it was 2 µg/mL (≈ 5.69 µM).

With `COC(=O)NC[C@H]1CN(c2cc(F)c3c(c2)CC(=O)N3CCF)C(=O)O1` [Example 4, (S)-{3-[7-fluoro-1-(2-fluoro-ethyl)-2-oxo-2,3-dihydro-1H-indol-5-yl]-2-oxo-oxazolidin-5-ylmethyl}-carbamic acid methyl ester], the values for the MIC90 in the test on S. aureus UC-76 SA-1, against S. pneumoniae SV1 SP-3 and against E. faecalis MGH-2 EF 1-1 were 4 µg/mL (≈ 10.8 µM), 4 µg/mL (≈ 10.8 µM) and 2 µg/mL (≈ 5.42 µM), respectively.

For the compound `COC(=O)NC[C@H]1CN(c2cc(F)c3c(c2)CC(=O)N3C(C)C)C(=O)O1` [Example 2, (5S)-[3-(7-fluoro-1-isopropyl-2-oxo-2,3-dihydro-1H-indol-5-yl)-2-oxo-oxazolidin-5-ylmethyl]-carbamic acid methyl ester], the MIC90 was 4 µg/mL (≈ 10.9 µM) in the test on S. aureus (LORSA), 2 µg/mL (≈ 5.47 µM) in the test on S. pneumoniae (LRSA), 2 µg/mL (≈ 5.47 µM) in the test on E. faecalis (VREF) and 2 µg/mL (≈ 5.47 µM) with E. faecium (VREF). Moreover, the Ki on MAO-A was over 500 µM; at MAO-B, 3.17 µM.
